# How the values were obtained:
# Assay type in all cases: in vitro ADME
# [1] = target: T1, CYP2C19 (Homo sapiens, UniProt P33261); assay: CYP2C19 [S]-mephenytoin 4′-hydroxylase inhibition in human liver microsomes; settings: at 50 µM
# T1 construct: pooled human liver microsomes (0.2 mg/mL); tissue Corning Life Sciences; host or cells: pooled human liver microsomes (150 donors)
# Description: After a 3-min pre-incubation at 37 °C, the reactions were initiated by addition of NADPH and incubation proceeded for 15 min at 37 °C in a shaking water bath. […] The incubation mixtures were centrifuged (13,000× g, 4 min, 4 °C). All assays were performed in triplicate and mean values were used in calculations.
# Each reaction was initiated by adding the seven-CYP probe substrate cocktail.
# (§1) The metabolites formed from CYP substrates were quantified simultaneously by a LC-MS/MS method described previously. The ESI source settings in positive-ion mode for metabolite ionization were: capillary voltage, 4200 V; vaporizer temperature, 350 °C; capillary temperature, 330 °C; sheath gas pressure, 35 psi; and auxiliary gas pressure, 15 psi. […] Analytical data were processed using Xcalibur software (version 2.1, Thermo Scientific).
# (§2) The apparent kinetic parameters for inhibitory potential (Ki and kinact values) and inhibition mode were estimated from the fitted curves using the Enzyme Kinetics program (ver. 1.1; Systat Software Inc., San Jose, CA, USA).
# [2] = target: T2, UGT1A3 (Homo sapiens, UniProt P35503); assay: UGT1A3 chenodeoxycholic acid 24-acyl-glucuronidation inhibition in human liver microsomes
# T2 construct: tissue Corning Life Sciences; host or cells: pooled human liver microsomes (150 donors)
# T2 sequence (P35503 29-534): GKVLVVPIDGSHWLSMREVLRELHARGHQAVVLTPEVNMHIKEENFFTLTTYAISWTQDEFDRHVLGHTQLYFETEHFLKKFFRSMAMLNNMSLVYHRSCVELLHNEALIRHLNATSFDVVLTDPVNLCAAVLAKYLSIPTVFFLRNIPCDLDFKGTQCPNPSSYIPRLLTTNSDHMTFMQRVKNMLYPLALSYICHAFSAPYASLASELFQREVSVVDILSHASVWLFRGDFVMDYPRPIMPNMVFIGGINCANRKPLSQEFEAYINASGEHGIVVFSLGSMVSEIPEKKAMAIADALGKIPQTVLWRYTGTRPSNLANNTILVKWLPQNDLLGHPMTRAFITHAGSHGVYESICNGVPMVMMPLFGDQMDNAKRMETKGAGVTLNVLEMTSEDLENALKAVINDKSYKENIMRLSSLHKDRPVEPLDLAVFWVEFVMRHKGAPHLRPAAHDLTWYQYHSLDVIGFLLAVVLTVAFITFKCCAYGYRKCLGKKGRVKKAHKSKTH
# Description: (§3) After 3 min of pre-incubation at 37 °C, the reactions were initiated by addition of UDPGA; incubation continued for 60 min at 37 °C in a shaking water bath. The reaction was stopped by placing the tubes on ice and adding 50 µL ice-cold acetonitrile containing internal standards (propofol glucuronide for chenodeoxycholic acid 24-acyl-β-glucuronide and mycophenolic acid glucuronide, and meloxicam for SN-38 glucuronide, trifluoperazine glucuronide, N-acetylserotonin β-D-glucuronide, and naloxone 3-β-D-glucuronide). The incubation mixtures were centrifuged (13,000× g, 4 min, 4 °C). All assays were performed in triplicate and average values were used in calculations.
# The reactions were initiated by addition of UDPGA at 37 °C and stopped after 60 min by placing the incubation tubes on ice and adding 100 μL of ice-cold methanol containing propofol glucuronide (internal standard for UGT1A3) or meloxicam (internal standard for UGT2B7). The incubation mixtures were centrifuged (13,000× g, 4 min, 4 °C), and then, 50 μL of the supernatant was diluted with 50 μL of water. Aliquots (5 μL) of the diluted supernatants were analyzed by LC-MS/MS.
# (§4) The metabolites formed from the six UGT cocktail substrates were measured simultaneously using the LC-MS/MS method. The ESI source settings in both positive- and negative-ion modes for metabolite ionization were: capillary voltage, 4200 V; vaporizer temperature, 350 °C; capillary temperature, 330 °C; sheath gas pressure, 35 psi; and auxiliary gas pressure, 15 psi. […] Data were processed using Xcalibur software.
# as §2
# [3] = target: T3, CYP2B6 (Homo sapiens, UniProt P20813); assay: CYP2B6 bupropion hydroxylase inhibition in ultrapool human liver microsomes; settings: at 50 µM
# T3 construct: pooled human liver microsomes (0.2 mg/mL); tissue Corning Life Sciences; host or cells: pooled human liver microsomes (150 donors)
# T3 sequence (P20813 1-491): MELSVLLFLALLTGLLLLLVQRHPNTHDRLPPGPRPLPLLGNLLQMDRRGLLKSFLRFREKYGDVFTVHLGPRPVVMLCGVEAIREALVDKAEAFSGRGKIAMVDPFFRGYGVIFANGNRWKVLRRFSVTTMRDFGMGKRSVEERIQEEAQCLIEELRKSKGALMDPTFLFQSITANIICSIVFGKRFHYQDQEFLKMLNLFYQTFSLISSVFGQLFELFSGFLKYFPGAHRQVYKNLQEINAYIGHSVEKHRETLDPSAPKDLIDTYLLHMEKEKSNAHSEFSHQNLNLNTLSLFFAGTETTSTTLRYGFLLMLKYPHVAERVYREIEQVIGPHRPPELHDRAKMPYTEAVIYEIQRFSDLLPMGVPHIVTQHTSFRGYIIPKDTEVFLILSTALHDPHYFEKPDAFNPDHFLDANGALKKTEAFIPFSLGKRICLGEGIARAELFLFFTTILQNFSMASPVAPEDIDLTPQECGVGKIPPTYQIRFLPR
# Description: All incubations were performed in triplicate, and average values were used.
# as §1, §2
# [4] = target: T4, UGT1A4 (Homo sapiens, UniProt P22310); assay: UGT1A4 trifluoperazine N-glucuronidation inhibition in human liver microsomes; settings: at 50 µM
# T4 construct: pooled human liver microsomes (0.2 mg/mL), 5 mM UDPGA; tissue Corning Life Sciences; host or cells: pooled human liver microsomes (150 donors)
# T4 sequence (P22310 29-534): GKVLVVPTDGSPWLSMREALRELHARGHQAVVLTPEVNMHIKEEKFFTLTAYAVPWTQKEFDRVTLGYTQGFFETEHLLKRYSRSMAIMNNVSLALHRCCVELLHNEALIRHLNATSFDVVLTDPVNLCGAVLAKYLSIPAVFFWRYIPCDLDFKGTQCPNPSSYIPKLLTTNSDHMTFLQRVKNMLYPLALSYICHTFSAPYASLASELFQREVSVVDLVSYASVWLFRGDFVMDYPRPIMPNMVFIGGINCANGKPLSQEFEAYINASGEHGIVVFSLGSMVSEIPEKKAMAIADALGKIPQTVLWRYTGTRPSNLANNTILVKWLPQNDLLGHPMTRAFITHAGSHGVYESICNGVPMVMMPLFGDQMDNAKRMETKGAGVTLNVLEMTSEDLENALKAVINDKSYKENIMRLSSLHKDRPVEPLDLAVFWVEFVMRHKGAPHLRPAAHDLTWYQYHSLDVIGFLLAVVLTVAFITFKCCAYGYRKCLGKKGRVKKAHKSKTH
# Description: as §3, §4, §2
# T1 sequence (P33261 whole entry): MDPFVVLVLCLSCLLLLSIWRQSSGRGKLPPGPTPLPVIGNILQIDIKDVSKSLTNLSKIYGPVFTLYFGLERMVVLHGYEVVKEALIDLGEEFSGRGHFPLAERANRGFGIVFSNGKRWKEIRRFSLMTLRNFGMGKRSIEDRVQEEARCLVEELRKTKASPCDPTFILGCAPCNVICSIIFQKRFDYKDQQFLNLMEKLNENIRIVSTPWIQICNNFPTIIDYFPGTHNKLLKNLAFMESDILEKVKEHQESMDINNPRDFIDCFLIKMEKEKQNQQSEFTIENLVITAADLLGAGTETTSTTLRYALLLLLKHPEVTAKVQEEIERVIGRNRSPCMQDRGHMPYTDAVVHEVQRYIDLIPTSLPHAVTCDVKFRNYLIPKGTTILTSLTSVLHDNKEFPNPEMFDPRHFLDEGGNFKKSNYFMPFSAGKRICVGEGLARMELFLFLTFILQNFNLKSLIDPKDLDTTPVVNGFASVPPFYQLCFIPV
smiles,measurement,setting,value
"O=C(c1cccc2ccccc12)c1cn(CCCCCF)c2ccccc12 [AM-2201, 1-(5-fluoropentyl-1H-indol-3-yl)-(naphthalene-1-yl)methanone]",inhibition of CYP2C19-mediated [S]-mephenytoin 4′-hydroxylation,[1],negligibly inhibited
same,Ki,[2],4.3 µM
same,IC50,"[2]; IC50, UGT1A3-catalyzed chenodeoxycholic acid 24-acyl-glucuronidation, abstract",4.3 µM
same,IC50,"[2]; IC50, UGT1A3 chenodeoxycholic acid 24-acyl-glucuronidation, 2 μM chenodeoxycholic acid, human liver microsomes",6.4 µM
same,Inhibition Mode,[2]; UGT1A3 chenodeoxycholic acid 24-acyl-glucuronidation,competitively inhibited
same,inhibition of CYP2B6-mediated bupropion hydroxylation,[3],negligibly inhibited
same,inhibition of UGT1A4-catalyzed trifluoperazine N-glucuronidation,[4],negligibly inhibited

# Reference: paper PMC6155437 (Molecules : A Journal of Synthetic Chemistry and Natural …, 2017)
